According to publication PMC2833169, “Anti-malarial activity of a non-piperidine library of next-generation quinoline methanols” (Malaria Journal, 2010):
Converted amounts (≈) assume the structure as drawn. Where two headings read alike, the source gives them in different places.

Key:
[1] = system: P. falciparum strain W2; assay: labeled hypoxanthine susceptibility assay, P. falciparum W2; assay type: cell-based, Plasmodium falciparum; conditions: Plasmodium falciparum, W2, read-out: IC90 Pf W2
Method: (§1) The in vitro activities of quinoline methanols against P. falciparum strains W2, D6, TM91C235, and TM90C2A were evaluated using the traditional labeled hypoxanthine assay of Desjardins et al as modified by Milhous et al. These four P. falciparum strains were selected since they have various levels of resistance to conventional anti-malarials.

[2] = system: P. falciparum strain D6; assay: labeled hypoxanthine susceptibility assay, P. falciparum D6; assay type: cell-based, Plasmodium falciparum; conditions: Plasmodium falciparum, D6, read-out: IC90 Pf D6, P. falciparum D6; mefloquine: historical mean +/- SD (n)
Method: as §1

[3] = system: P. falciparum strain TM91C235; assay: labeled hypoxanthine susceptibility assay, P. falciparum TM91C235; assay type: cell-based, Plasmodium falciparum; conditions: Plasmodium falciparum, read-out: IC90 Pf C235
Method: as §1

[4] = system: P. falciparum strain TM90C2A; assay: labeled hypoxanthine susceptibility assay, P. falciparum TM90C2A; assay type: cell-based, Plasmodium falciparum; conditions: Plasmodium falciparum, TM90C2A
Method: as §1

[5] = in vitro; conditions: mouse
Method: (§2) General cytotoxicity was assessed by first determining LC50 's against a rodent macrophage (RAW) cell line using the 3-(4,5-dimethylthiazole-2-yl)-2,5-diphenyltetrazolium bromide (MTT) assay as described in one of our earlier studies. This screen was conducted to identify compounds that may require de-selection due to generalized toxicity. […] In vitro neurocytotoxicity was assessed by determining LC50s against primary mouse neurons using the MTT assay as described previously. Inhibition of the A2A and A1 receptors was determined at 200 nM in duplicate by Caliper Biosciences (Hanover, Maryland).

[6] = in vitro; conditions: mouse; remark: listed apart in the source
Method: as §2

[7] = molecular target: T1, A2A receptor (Homo sapiens, UniProt P29274); assay: inhibition of the A2A receptor at 200 nM; assay type: binding; conditions: read-out: % A2A inhibition at 200 nM
T1 construct: Caliper Biosciences (contract screen)
T1 sequence (P29274 whole entry): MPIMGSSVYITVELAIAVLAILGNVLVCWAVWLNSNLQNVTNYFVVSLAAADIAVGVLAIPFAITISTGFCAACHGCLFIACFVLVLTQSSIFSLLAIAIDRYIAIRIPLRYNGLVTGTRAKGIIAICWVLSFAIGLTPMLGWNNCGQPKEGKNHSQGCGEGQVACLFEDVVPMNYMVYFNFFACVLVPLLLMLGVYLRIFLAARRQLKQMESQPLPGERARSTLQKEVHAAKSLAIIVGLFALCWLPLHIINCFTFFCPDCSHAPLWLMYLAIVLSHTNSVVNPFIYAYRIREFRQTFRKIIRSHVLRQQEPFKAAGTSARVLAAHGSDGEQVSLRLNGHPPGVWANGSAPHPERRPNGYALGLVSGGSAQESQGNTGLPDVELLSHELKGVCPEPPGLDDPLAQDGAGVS
Method: as §2

[8] = molecular target: T2, A1 receptor (Homo sapiens, UniProt P30542); assay: inhibition of the A1 receptor at 200 nM; assay type: binding; conditions: duplicate
T2 construct: Caliper Biosciences (contract screen)
T2 sequence (P30542 1-326): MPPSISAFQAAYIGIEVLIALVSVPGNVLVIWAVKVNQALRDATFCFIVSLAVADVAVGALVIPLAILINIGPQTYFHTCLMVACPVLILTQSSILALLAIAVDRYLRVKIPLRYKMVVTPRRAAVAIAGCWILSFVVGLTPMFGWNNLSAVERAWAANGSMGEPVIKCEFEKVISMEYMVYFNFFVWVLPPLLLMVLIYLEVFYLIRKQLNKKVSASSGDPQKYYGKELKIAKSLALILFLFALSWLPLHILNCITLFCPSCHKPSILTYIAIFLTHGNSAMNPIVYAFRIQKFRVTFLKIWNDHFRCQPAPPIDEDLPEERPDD
Method: as §2

[9] = system: MDR1-transfected MDCK cell monolayers; assay: apparent permeability across MDR1-MDCK cell monolayers
Method: (§3) For this reason, the apparent permeability of selected compounds across MDR1-transfected MDCK cell monolayers was determined. This assay is an in vitro surrogate of the blood-brain barrier.
(§4) Permeability was determined by Absorption Systems (Exton, PA). MDR1-MDCK cell monolayers were grown to confluence on collagen-coated, microporous, polycarbonate membranes in 12-well Costar Transwell plates. […] The permeability assay buffer was Hanks Balanced Salt Solution containing 10 mM HEPES and 15 mM glucose at a pH of 7.4. A known p-glycoprotein inhibitor cyclosporin A (CSA) was also added to the assay buffer at 10 μM. Bovine serum albumin (1%) was added to the receiver well. The dosing solution concentrations of the test compounds were 5.0 μM in the assay buffer. All cell monolayers were first pre-incubated for 30 minutes with assay buffer. After 30 minutes, the buffer was removed, replaced with fresh buffer, and time was recorded as 0. […] Cell monolayers were dosed on the apical side (A-to-B) or basolateral side (B-to-A) and incubated at 37°C with 5% CO2 in a humidified incubator. After 2 hours, aliquots were taken from the receiver chambers. Samples were taken from the donor chamber at 0 and 2 hours. Each determination was performed in duplicate. The lucifer yellow flux was also measured for each monolayer to ensure no damage was inflicted to the cell monolayers during the flux period. All samples were assayed by LC/MS/MS using electrospray ionization.
(§5) Apparent permeability in the apical (A-B direction), PappA-B, and percent recovery are reported. Apparent permeability is a measure of the rate of transport across the cell monolayer. Percent recovery refers to the amount of compound recoverable at the end of the assay. Low recovery may indicate non-specific binding to assay plates, instability or accumulation in the cell pellet.
(§6) The apparent permeability, Papp, and percent recovery were calculated as follows:
(§7) Papp = (dCr/dt) × Vr/(A × C0) (1)
(§8) Percent Recovery = 100 × ((Vr × Cr^final) + (Vd × Cd^final))/(Vd × […]) (2)

[10] = metabolic stability in mouse liver microsomes; assay type: in vitro ADME
Method: Interesting compounds were also submitted for drug-drug interaction and metabolic stability assays. Low IC50s against specific cytochrome P450 isoforms may indicate the potential for a harmful drug interaction to occur in vivo with substrates of that isoform. A lack of metabolic stability in vitro may indicate potential metabolic instability in vivo, and, therefore, a shorter half-life. Drug interaction potential was evaluated in vitro using BD Gentest (Franklin Lakes, NJ) CYP450 inhibition kits as recommended by the manufacturer. Metabolic stability assessments were conducted using in vitro liver microsomes. […] The reaction is started with the addition of 1 U/mL glucose-6-phosphate dehydrogenase G6PD. The mixture is incubated on a shaking platform at 37°C, and aliquots are taken and quenched with the addition of an equal volume of cold acetonitrile at 0, 10, 20, 30, and 60 min. Samples are centrifuged at 3700 rpm for […] at 20°C to remove debris. Sample quantification is carried out by LC/MS, and metabolic half-life is calculated by log plots of the total ion chromatograph area remaining.

[11] = in vitro; conditions: dog, MDCK-MDR1, pH 7.4
Method: as §3, §4, §5, §6, §7, §8

## OC(c1cc(C(F)(F)F)nc2c(C(F)(F)F)cccc12)C1CCCCN1 (stereo not drawn) [Mefloquine, mefloquine, reference compound]
[1]
  IC90: 0.0062 ± 0.0028 µg/mL (≈ 0.0164 µM)
[2]
  IC90: 0.017 ± 0.011 µg/mL (≈ 0.0449 µM)
[3]
  IC90: 0.052 ± 0.03 µg/mL (≈ 0.137 µM)
[4]; read-out: IC90 Pf C2A
  IC90: 0.074 ± 0.032 µg/mL
[4]; read-out: IC90 PfC2A
  IC90: 171 nM
[5]
  CC50: 3.72 ± 1.51 µg/mL (≈ 9.84 µM)
[6]
  CC50: 41 µM
[7]
  inhibition at 0.2 µM: 62%
[8]
  inhibition at 0.2 µM: 4%
[9]; apical (A-B) direction, 5.0 μM, 10 μM cyclosporin A, 2 h, mefloquine average of n = 3
  PappA-B MDCK-MDR1: 9.4 10^-6 cm/s
[9]; compound recoverable at end of assay
  % recovery (MDCK-MDR1 permeability assay): < 40%
[10]; 1 μM, pH 7.4
  HL in Microsomes: > 60 min
[10]; mouse, microsomes, pH 7.4
  half-life at 1 μM: > 60 min

## OC(CNCC12CCC(C1)NC2)c1cc(C(F)(F)F)nc2c(C(F)(F)F)cccc12 (stereo not drawn) [WR319535/581]
[1]
  IC90: 0.275 µg/mL (≈ 0.635 µM)
[2]
  IC90: 0.075 µg/mL (≈ 0.173 µM)
[3]
  IC90: 0.26 µg/mL (≈ 0.6 µM)
[4]; read-out: IC90 Pf C2A
  IC90: 0.251 µg/mL
[5]
  CC50: 4.11 µg/mL (≈ 9.48 µM)
[11]
  Papp A→B at 2 h, 5 μM: 2 ×10⁻⁶ cm/s
[9]; dog, MDCK-MDR1, 2 h, 5 μM, pH 7.4
  % recovery (MDCK-MDR1 permeability assay): 52%
[10]; Figure 3, species of microsomes not given
  HL in Microsomes: > 60 min
